Experimental data taken from patent publication US6734182B2, “Aryl sulfonamides and sulfamide derivatives and uses thereof” (Synaptic Pharmaceutical Corporation, priority 1995, dated 2004).

Assays:
human 5HT2 receptor = target: T1, human 5HT2 receptor (Homo sapiens, UniProt P28223); assay: Binding to human 5HT2 receptor ([3H]ketanserin); settings: cloned human receptor
T1 construct: expressed in transfected cells; host or cells: COS-7 cells (DEAE-dextran); the same paragraph also names the deposited line L-NGC-5HT2 (ATCC CRL 10287)

5HT1a = 5HT1a (Homo sapiens, UniProt P08908); assay: Binding to cloned human 5HT1a receptor
[1] = test system: NPY-induced feeding behavior in satiated rats; assay: NPY-induced food intake in satiated rats; type: in vivo, rat; settings: compound 30 mg/kg i.p., then 300 pmole NPY i.c.v., 4 hours after NPY, in g (unit assumed)
Experimental: For these determinations food intake maybe measured in normal satiated rats after intracerebroventricular application (i.c.v.) of NPY in the presence or absence of the test compound. Male Sprague Dawley rats ciba-Geigy AG, Sisseln, Switzerland weighing between 180 g and 220 g are used for all experiments. The rats are individually housed in stainless steel cages and maintained on an 11:13 h light-dark cycle (lights off at 18:00 h) at a controlled temperature of 21-23° C. at all times. Water and food (NAFAG lab chow pellets, NAFAG, Gossau, Switzerland) are available ad libidum.
Rats under pentobarbital anesthesia are stereotaxically implanted with a stainless steel guide cannula targeted at the right lateral ventricle. Stereotaxic coordinates, with the incisor bar set −2.0 mm below interaural line, are: −0.8 mm anterior and +1.3 mm lateral to bregma. The guide cannula is placed on the dura. […]
Food intake may be measured by placing preweighed pellets into the cages at the time of NPY injection. […] The food intake of animals treated with test compound may be calculated as a percentage of the food intake of control animals, i.e., animals treated with vehicle. Alternatively, food intake for a group of animals subjected to the same experimental condition may be expressed as the mean ±S.E.M. Statistical analysis is performed by analysis of variance using the Student-Newman-Keuls test. […]

human α2C receptor = target: T2, human α2C receptor (Homo sapiens, UniProt P18825); assay: Binding to cloned human α2C adrenergic receptor ([3H]rauwolscine)
T2 construct: expressed in transfected cells

[2] = target: T3, human histamine H2 receptor (Homo sapiens, UniProt P25021); assay: Binding to human histamine H2 receptor ([3H]tiotidine); settings: cloned human receptor
T3 construct: expressed in transfected cells; host or cells: COS-7 cells, transient (DEAE-dextran), plasmid pcEXV-H2 (ATCC 75345)
T3 sequence (P25021 whole entry): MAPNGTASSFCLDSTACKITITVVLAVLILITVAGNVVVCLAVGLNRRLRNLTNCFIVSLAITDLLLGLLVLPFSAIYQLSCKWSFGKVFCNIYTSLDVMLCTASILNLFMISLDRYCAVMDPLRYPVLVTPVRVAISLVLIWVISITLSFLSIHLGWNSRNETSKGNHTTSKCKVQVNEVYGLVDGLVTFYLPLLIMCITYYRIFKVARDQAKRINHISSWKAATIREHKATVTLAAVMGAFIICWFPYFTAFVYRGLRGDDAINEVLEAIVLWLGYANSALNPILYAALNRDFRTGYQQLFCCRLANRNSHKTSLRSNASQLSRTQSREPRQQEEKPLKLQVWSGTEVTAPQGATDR

T1 sequence (P28223 whole entry): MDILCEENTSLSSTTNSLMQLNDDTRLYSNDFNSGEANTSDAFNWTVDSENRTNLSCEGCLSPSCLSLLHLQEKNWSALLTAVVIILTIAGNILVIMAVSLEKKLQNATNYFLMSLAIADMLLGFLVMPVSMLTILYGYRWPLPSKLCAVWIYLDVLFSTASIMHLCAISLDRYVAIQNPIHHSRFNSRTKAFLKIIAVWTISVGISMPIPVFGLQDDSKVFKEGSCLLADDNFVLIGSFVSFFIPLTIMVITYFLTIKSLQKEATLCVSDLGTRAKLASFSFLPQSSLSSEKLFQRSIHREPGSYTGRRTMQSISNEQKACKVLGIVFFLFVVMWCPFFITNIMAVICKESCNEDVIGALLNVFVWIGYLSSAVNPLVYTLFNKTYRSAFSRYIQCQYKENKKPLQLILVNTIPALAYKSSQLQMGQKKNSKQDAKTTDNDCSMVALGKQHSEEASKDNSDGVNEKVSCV
Sequence of 5HT1a (P08908 whole entry): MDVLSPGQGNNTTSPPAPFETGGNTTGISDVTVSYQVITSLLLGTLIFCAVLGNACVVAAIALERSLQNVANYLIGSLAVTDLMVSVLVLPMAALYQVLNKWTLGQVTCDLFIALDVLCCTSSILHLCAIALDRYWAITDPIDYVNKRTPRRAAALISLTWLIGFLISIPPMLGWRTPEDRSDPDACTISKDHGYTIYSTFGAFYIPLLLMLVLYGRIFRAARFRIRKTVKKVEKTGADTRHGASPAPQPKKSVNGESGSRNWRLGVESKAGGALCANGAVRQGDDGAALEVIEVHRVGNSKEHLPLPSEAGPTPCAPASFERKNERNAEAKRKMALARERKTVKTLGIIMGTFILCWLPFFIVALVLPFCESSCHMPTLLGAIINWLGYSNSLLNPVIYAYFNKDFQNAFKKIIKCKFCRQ
T2 sequence (P18825 whole entry): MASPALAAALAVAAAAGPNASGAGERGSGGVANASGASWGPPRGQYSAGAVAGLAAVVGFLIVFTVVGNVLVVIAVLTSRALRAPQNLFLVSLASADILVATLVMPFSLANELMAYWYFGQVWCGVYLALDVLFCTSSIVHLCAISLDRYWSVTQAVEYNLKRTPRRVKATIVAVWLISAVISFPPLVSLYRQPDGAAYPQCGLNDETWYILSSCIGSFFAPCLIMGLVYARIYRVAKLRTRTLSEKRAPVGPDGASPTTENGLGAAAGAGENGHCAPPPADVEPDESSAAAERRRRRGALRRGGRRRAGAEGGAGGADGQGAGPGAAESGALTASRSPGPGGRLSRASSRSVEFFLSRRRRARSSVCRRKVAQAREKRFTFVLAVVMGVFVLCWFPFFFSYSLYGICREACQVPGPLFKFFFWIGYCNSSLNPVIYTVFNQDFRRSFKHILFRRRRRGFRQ

| Receptor (pKi) 5HT2 (human 5HT2 receptor) | Receptor (pKi) 5HT1a (5HT1a) | Receptor (pKi) α2c (human α2C receptor) | Receptor (pKi) H2 [2] | Structure (SMILES) | NPY-induced cumulative food intake (NPY + compound), mean ± S.E.M. [1] |
| --- | --- | --- | --- | --- | --- |
| 6.55 | 5.54 |  |  | Cl.O=S(=O)(NCC1CCC(CNCC2CCc3ccccc3C2)CC1)c1cccc2ccccc12 (stereo not drawn) [Example 32] | 1.5 ± 0.6 |
| 5.93 |  | 7.39 | 5.85 | Cl.O=[N+]([O-])c1ccccc1S(=O)(=O)NCC1CCC(CNCC2CCc3ccccc3C2)CC1 (stereo not drawn) [Example 36] |  |
